From PubChem BioAssay (NCI)
Several values for one entry are separate records, joined by “and”; a condition that tells them apart may be missing. Equal entries are not always repeated.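 Values below derive from 48-hour exposures of cells grown in 96-well plates, with endpoints linearly interpolated between the two concentrations bracketing the appropriate inhibition level. GI50 is the concentration that inhibits growth by half. At the TGI there is no net growth.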

How the values were obtained:
Test in all cases: growth of human tumour cells (NCI), 48 h
A549 NSCLC = system: A549 NSCLC
BT-549 breast = system: BT-549 breast
CCRF-CEM leukemia = system: CCRF-CEM leukemia
MDA-MB-435 = system: MDA-MB-435
MOLT-4 leukemia = system: MOLT-4 leukemia
OVCAR-5 ovarian = system: OVCAR-5 ovarian
SF-539 CNS = system: SF-539 CNS
TK-10 renal = system: TK-10 renal
UACC-257 melanoma = system: UACC-257 melanoma
UO-31 renal = system: UO-31 renal

SMILES	TGI (A549 NSCLC)	TGI (BT-549 breast)	TGI (CCRF-CEM leukemia)	TGI (MDA-MB-435)	TGI (MOLT-4 leukemia)	TGI (OVCAR-5 ovarian)	TGI (SF-539 CNS)	TGI (TK-10 renal)	TGI (UACC-257 melanoma)	TGI (UO-31 renal)	GI50 (A549 NSCLC)	GI50 (BT-549 breast)	GI50 (CCRF-CEM leukemia)	GI50 (MDA-MB-435)	GI50 (MOLT-4 leukemia)	GI50 (OVCAR-5 ovarian)	GI50 (SF-539 CNS)	GI50 (TK-10 renal)	GI50 (UACC-257 melanoma)	GI50 (UO-31 renal)
O=C1c2ccccc2C(=O)c2c(/C=C\N3CCCCC3)ccnc21	5.84 µM	2.22 µM	47.6 µM	0.289 µM	41.1 µM	16.2 µM	9.65 µM	34.4 µM	3.22 µM	23.4 µM	–	–	–	–	–	–	–	–	–	–
CCNC(=O)C#Cc1ccc2c(C(=Nc3ccc(CN(C)C)cc3)c3ccccc3)c(O)[nH]c2c1	> 5.34 µM	> 10 µM	5.58 µM	2.51 µM	2.76 µM	0.732 µM	1.27 µM	> 5.41 µM	0.114 µM	1.34 µM	0.0401 µM	1.51 µM	0.00204 µM	0.0127 µM	0.199 µM	0.0262 µM	0.121 µM	0.593 µM	0.0216 µM	0.0811 µM
O=C(Nc1cccc(C(F)(F)F)c1)Nc1cccc(C(F)(F)F)c1	8.21 µM	6.44 µM	10.8 µM	5.51 µM	6.44 µM	14.8 µM	5.23 µM	7.2 µM	4.95 µM	4.21 µM	0.531 µM	2.29 µM	0.721 µM	1.44 µM	1.34 µM	3.24 µM	2.13 µM	1.3 µM	1.31 µM	0.649 µM
NC(=S)N/N=C1\c2cc(Cl)ccc2-c2c1cc(Cl)cc2[N+](=O)[O-]	> 100 µM	36.7 µM	> 100 µM	> 100 µM	23.6 µM	> 100 µM	88.2 µM	> 100 µM	> 100 µM	70.2 µM	4.05 µM	3.41 µM	3.43 µM	7.28 µM	3.21 µM	11 µM	6.16 µM	20.5 µM	6.56 µM	4.81 µM
CCC(C)SC1SCC2C(=O)N(C)C3(CC3C)C(=O)OCC(NC(=O)c3nc4ccccc4cc3O)C(=O)NC(C)C(=O)N(C)C1C(=O)N(C)C1(CC1C)C(=O)OCC(NC(=O)c1nc3ccccc3cc1O)C(=O)NC(C)C(=O)N2C (stereo not given)	1.91 µM	0.000693 µM	0.028 µM and < 0.013 µM	0.00019 µM	0.0687 µM	0.00256 µM	0.000317 µM	–	0.000219 µM	0.0127 µM	–	–	–	–	–	–	–	0.000654 µM	–	–
NC(N)=NS(=O)(=O)c1ccc(N=Nc2c(O)c(C(=O)O)cc3ccccc23)cc1	> 100 µM	> 100 µM	> 100 µM	> 100 µM	> 100 µM	> 100 µM	> 100 µM	> 100 µM	> 100 µM	> 100 µM	–	–	–	–	–	–	–	–	–	–
O=C1CSC(=S)N1/N=C/c1ccc(Cl)c([N+](=O)[O-])c1	> 100 µM	37.9 µM	> 100 µM	54.3 µM	> 100 µM	> 100 µM	> 100 µM	> 100 µM	62.8 µM	71 µM	–	–	–	–	–	–	–	–	–	–
Nc1nc2[nH]cc(CCc3ccc(C(=O)N[C@@H](CCC(=O)O)C(=O)O)cc3)c2c(=O)[nH]1	> 100 µM	> 100 µM	> 100 µM	> 100 µM	> 100 µM	> 100 µM	–	> 100 µM	> 100 µM	> 100 µM	0.587 µM	> 71.7 µM	0.211 µM	–	0.53 µM	–	0.0774 µM	–	–	0.19 µM
C=CC(=O)Nc1cc(Nc2nccc(-c3cn(C)c4ccccc34)n2)c(OC)cc1N(C)CCN(C)C	4.17 µM and 3.87 µM	12.8 µM and > 10 µM	5.84 µM and 5.33 µM	3.03 µM and 3.14 µM	5.08 µM and 3.66 µM	2.95 µM and 6.55 µM	3.29 µM and 3.16 µM	15.5 µM and 2.02 µM	3.27 µM and 3.37 µM	4.09 µM and 2.08 µM	1.4 µM and 1.29 µM	3.52 µM and 2.95 µM	1.61 µM and 2.19 µM	1.62 µM and 1.64 µM	1.77 µM and 1.49 µM	1.3 µM and 1.29 µM	1.7 µM and 1.63 µM	0.0615 µM and 0.0824 µM	1.71 µM and 1.8 µM	0.604 µM and 0.444 µM
C/C=C/[C@@H]1O[C@@H]2COC(=O)C2=C[C@@H]1O	40.4 µM	15.2 µM	> 100 µM	37.3 µM	–	37.1 µM	8.14 µM	20.5 µM	36.9 µM	> 51.6 µM	20.6 µM	3.59 µM	2.94 µM	18.8 µM	2.2 µM	19.2 µM	2.78 µM	6.43 µM	21 µM	4.21 µM
O=C(O)C(Cl)Cl	> 10000 µM	> 10000 µM	> 10000 µM	> 10000 µM	> 10000 µM	> 10000 µM	> 10000 µM	> 10000 µM	> 10000 µM	5010 µM and > 9340 µM	7560 µM and > 10000 µM	2780 µM and > 8920 µM	4920 µM and > 4680 µM	5460 µM and > 10000 µM	8180 µM and > 8700 µM	> 10000 µM	> 10000 µM	> 10000 µM	> 10000 µM	2090 µM and > 6870 µM
COc1ccccc1NC(=O)c1cc2cc(Br)ccc2cc1O	7.71 µM	6.12 µM	9.5 µM	8.58 µM	17.3 µM	12.9 µM	7.34 µM	15.3 µM	5.3 µM	7.85 µM	2.65 µM	2.15 µM	2.62 µM	2.35 µM	2.7 µM	3.48 µM	2.34 µM	4.31 µM	1.97 µM	1.57 µM
O=C1c2c(F)c(F)c(F)c(F)c2C(=O)N1c1ccc(F)cc1F	34.7 µM	28 µM	6.82 µM	38.3 µM	3.73 µM	26.5 µM	7.27 µM	> 51 µM	57.2 µM	> 48 µM	16.3 µM	11.9 µM	0.958 µM	13.9 µM	0.864 µM	12.6 µM	2.78 µM	13.7 µM	21.8 µM	10.5 µM
OC(c1cc(C(F)(F)F)nc2c(C(F)(F)F)cccc12)C1CCCCN1 (stereo not given)	6.33 µM	8.67 µM	9.13 µM	3.66 µM	6.53 µM	10.4 µM	6.34 µM	3.43 µM	6.53 µM	12.3 µM	2.24 µM	3.24 µM	3.04 µM	1.8 µM	2.77 µM	2.88 µM	2.72 µM	1.8 µM	2.2 µM	2.63 µM
CC(=C(c1ccc(OCCN2CCCCC2)cc1)c1ccc(OCCN2CCCCC2)cc1)c1ccc(Cl)cc1	0.914 µM	0.787 µM	1.56 µM	0.777 µM	0.982 µM	0.771 µM	0.738 µM	0.755 µM	0.884 µM	0.681 µM	0.457 µM	0.414 µM	0.493 µM	0.416 µM	0.449 µM	0.417 µM	0.393 µM	0.384 µM	0.454 µM	0.354 µM
NCCNCCNCCN	> 100 µM	> 100 µM	> 100 µM	> 100 µM	> 100 µM	> 100 µM	> 100 µM	> 100 µM	> 100 µM	> 100 µM	> 100 µM	> 100 µM	> 100 µM	> 100 µM	> 100 µM	> 100 µM	> 100 µM	> 100 µM	> 100 µM	> 100 µM
CC(=O)N[C@@H](Cc1ccc(OP(=O)(O)O)cc1)C(=O)N[C@H]1CCC(=O)N2CCC[C@@H](C(=O)Nc3cccc4ccccc34)N2C1=O	> 25 µM	> 25 µM	> 25 µM	> 25 µM	> 25 µM	> 25 µM	> 25 µM	> 25 µM	> 25 µM	> 25 µM	> 25 µM	> 25 µM	> 25 µM	> 25 µM	> 25 µM	> 25 µM	> 25 µM	> 25 µM	> 25 µM	> 21.4 µM
O=C(Nc1nn2c(-c3cc(C(F)(F)F)cc(C(F)(F)F)c3)nnc2s1)C1CCCC1	> 100 µM	> 74.7 µM	> 82.1 µM	> 39.8 µM	4.53 µM	> 100 µM	> 100 µM	> 100 µM	3.49 µM	5.57 µM	1.08 µM	0.796 µM	0.459 µM	0.424 µM	0.643 µM	2.63 µM	0.981 µM	1.79 µM	0.419 µM	0.402 µM
CC(=O)OC1(C)N=NC2(CCCCC2)O1 (stereo not given)	> 100 µM	> 100 µM	> 100 µM	> 100 µM	> 100 µM	> 100 µM	> 100 µM	> 100 µM	> 100 µM	–	–	–	–	–	–	–	–	–	–	–
C=C(C)C(=O)O[C@@H]1C[C@@]2(C)O[C@@H]2C[C@H](O)/C(C)=C/[C@H]2OC(=O)C(=C)[C@@H]21	> 100 µM	> 100 µM	63.6 µM	> 100 µM	> 100 µM	> 100 µM	> 100 µM	> 100 µM	> 100 µM	–	–	–	–	–	–	–	–	–	–	–
CC(=O)OCc1ccc2c(c1)C(O)NC(=O)O2 (stereo not given)	> 100 µM	> 100 µM	40.4 µM	> 100 µM	> 100 µM	> 100 µM	> 100 µM	> 100 µM	> 100 µM	> 100 µM	–	–	–	–	–	–	–	–	–	–
C=C(C)C12OC1[C@@]1(C)C(=CC2=O)CCC(O)[C@@H]1C (stereo not given in full)	20.3 µM	50.8 µM	8.82 µM	21.1 µM	3.66 µM	> 100 µM	15.8 µM	> 100 µM	> 100 µM	41.9 µM	–	–	–	–	–	–	–	–	–	–
COc1c2ccccc2c(OC)c2[nH]c(=O)ccc12	> 20.6 µM	4.51 µM	> 100 µM	4.07 µM	> 100 µM	> 85.4 µM	> 36.5 µM	> 100 µM	6.39 µM	97.3 µM	2.43 µM	2.07 µM	> 24.5 µM	1.98 µM	> 21.5 µM	8.02 µM	4.19 µM	51.2 µM	2.5 µM	8.13 µM
O=C1NC(=NCc2ccccc2)S/C1=C\c1ccc2ncccc2c1	> 25 µM	> 25 µM	> 25 µM	> 25 µM	> 25 µM	> 25 µM	> 25 µM	> 25 µM	> 25 µM	> 25 µM	24.6 µM	> 25 µM	> 17.1 µM	> 25 µM	> 25 µM	> 25 µM	> 25 µM	> 25 µM	> 25 µM	> 25 µM
COC(=O)/C=C/c1cc(OC(C)=O)c2c(c1)[C@@H](C(=O)OC)[C@H](c1ccc(OC(C)=O)c(OC(C)=O)c1)O2	> 78.8 µM	32.9 µM	34.4 µM	0.0466 µM	> 55 µM	> 100 µM	0.305 µM	> 91.1 µM	56.2 µM	38 µM	0.248 µM	0.219 µM	0.039 µM	0.0166 µM	0.09 µM	0.95 µM	0.0344 µM	2.58 µM	1.45 µM	0.131 µM
CN1CCN(C(=O)COc2ccc(C34CC5CC(CC(C5)C3)C4)cc2)CC1	37.2 µM	26.5 µM	27.8 µM	28.8 µM	94.9 µM	44.6 µM	25.9 µM	33.2 µM	31.9 µM	25 µM	13 µM	12.2 µM	5.44 µM	14.6 µM	13.2 µM	17.6 µM	12.7 µM	16.7 µM	12.8 µM	12.4 µM
COc1ccc2ncnc(Nc3ccc(OCc4ccccc4)cc3)c2c1	> 25 µM	> 25 µM	> 25 µM	> 21.1 µM	> 23.5 µM	> 22.6 µM	> 25 µM	18.4 µM	> 25 µM	> 17 µM	5.98 µM	7.91 µM	8.49 µM	7.22 µM	7.56 µM	6.57 µM	8.96 µM	3.68 µM	7.47 µM	3.62 µM
C=C1C[C@H](O)[C@H](Br)C(C)(C)[C@@]12CCC(C)=C(Cl)C2	1.96 µM	2.82 µM	7.92 µM	1.72 µM	0.795 µM	8.87 µM	11.3 µM	2.89 µM	–	3.25 µM	0.261 µM	0.248 µM	0.445 µM	0.327 µM	0.229 µM	0.342 µM	0.445 µM	0.373 µM	–	0.612 µM
